Experimental data as given in ChEMBL document CHEMBL1145602, “Synthesis and DNA binding ability of cyclam-amino acid conjugates” (Bioorg Med Chem Lett, 2008).
Activity calls are given as the source filed them. The rule behind the calls is not given here.

Test system: DNA
Experiment: Binding affinity to calf thymus DNA at pH 7 by thermal denaturation assay
Format: nucleic-acid assay
Settings: Bos taurus

SMILES | ΔTm [°C] | Activity
O=C(CN1CCCNCCNCCCNCC1)N[C@@H](COCc1ccccc1)C(=O)O | 8 | –
C[C@H](NC(=O)CN1CCCNCCNCCCNCC1)C(=O)O | – | Active
O=C(CN1CCCNCCNCCCNCC1)N[C@@H](Cc1ccccc1)C(=O)O | – | Active
